From patent US20080027095A1, “Use Of 3-Substituted-2-(Diphenylmethy)-1-Azabicyclo[2.2.2]Octanes For Treating Mrg-X1 Receptor Mediated Diseases” (priority 2005, published 2008)
pEC50, pIC50, pKd: −log10 of the molar value. Where no end group is shown, it is not given here.

What was measured:
hMRG-X1 receptor [1] = molecular target: T1, hMRG-X1 receptor (Homo sapiens, UniProt Q96LB2); assay: Intracellular Ca2+ (FLIPR) assay in CHO-hMRG-X1-NFAT/Bla cells; type: cell-based; details: inhibition of BAM15-induced i[Ca2+] response
Method: Intracellular Ca^2+ measurements were performed essentially as described (14, 15). Modifications include 8000 cells/well of the CHO-hMRG-X1-NFAT/Bla cells in 20 μgrowth medium plated in 384-well plates 24 hours before assay. Cells were loaded with 20 μl of 2X calcium probe and fluorescent quencher. Agonist was prepared as a 4× stock in HBSS buffer and added to the assay plate by the FLIPR384 pipetter (13.3 μl/well). Experimental data points are represented as median±standard deviation of 4 replicates.

hMRG-X1 receptor [2] = molecular target: T1, hMRG-X1 receptor; assay: Beta-lactamase (BLA) reporter-gene assay in CHO-hMRG-X1-NFAT/BLA cells; type: cell-based; details: for pIC50: antagonism of BAM15-induced BLA response
Method: BLA assays in 384-well plates were performed essentially as described previously (11). For miniaturization of the BLA assay into 3456-well format, cells were serum-starved for ˜18 hours in assay medium (11) the day before the assay. On the day of the assay, cells were dissociated with enzyme-free dissociation buffer, re-suspended into assay medium and dispensed into a 3456-well nanoplate (3000 cells in 1.4 μl/well) using the FRD (Aurora Discovery, San Diego, Calif.) (13). Rest of the BLA assay was conducted essentially as described earlier (13). The cellular response was also observed by fluorescence microscopy with UV illumination. The data are plotted as a ratio of the emissions 460 nm/530 nm. Experimental data points are represented as median±standard deviation of 4-115 replicates.

hMRG-X1 receptor [3] = molecular target: T1, hMRG-X1 receptor; assay: Whole cell receptor binding assay with 3H-BAM in CHO-hMRG-X1-NFAT-BLA cells; details: 10 nM 3H-BAM, 4° C.
Method: CHO-hMRG-X1-NFAT-BLA cells were plated in a 24-well plate at 60,000 cells/well in 500 μl growth medium and incubated at 37° C. for 24 hours. The cells were washed once with 200 μl assay buffer (HANKS with 0.1% BSA and 20 mM HEPES, pH 7.5, refrigerated at 4° C.) using a vacuum aspirator. 90 μl assay buffer was added to each well followed by an addition of 0.2 μl/well diluted compounds (500X stock in DMSO) and incubated at 4° C. for 5 minutes. […] of ^3H-BAM peptide was added to each well (10 nM final concentration; ˜75,000 dpm) and the assay plate was incubated at 4° C. for 30 minutes with brief gentle shaking every 5 minutes. The assay plate was then washed rapidly with 2X 200 μl assay buffer (approximately 4 to 5 seconds for both washes). All wash steps were performed in a cold room (4° C.). To lyse the cells, 200 μl of 0.2 M NaOH was added to each well and incubate at room temperature for 30 minutes. The cell lysate in each well was transferred to a scintillation vial followed by addition of 3 ml scintillation solution (UltimaGold, PerkinElmer) and counted in a scintillation counter (1 minute per vial).

hMRG-X1 receptor [4] = molecular target: T1, hMRG-X1 receptor; assay: Receptor trafficking/internalization assay (InCell, Transfluor) in U2OS-hMRGX1-βarrGFP cells; type: cell-based; details: for pIC50: 60 μM BAM15 (EC80), receptor trafficking
Method: (§1) U2OS-hMRGX1-βarrGFP stable cells were cultured in MEM supplemented with 10% heat-inactivated FBS, 4 mM L-Glutamine, 10 μg/ml Gentamicin, 10 mM HEPES, 0.4 mg/ml G-418, and 0.4 mg/ml Zeocin. Cells were plated on black/clear plastic bottom 384-well Corning plates at a density of 3000 cells/well in 20 μl growth medium and cultured overnight. DMSO, or sample compounds titrated in 75% DMSO were transferred from the compound source plate into the assay plate (200 nl/well). After 15 minutes incubation at 37° C. and 5% CO2, 5 μl of agonist (varying concentrations of BAM15 or EC80 concentration of 60 μM for compound titrations) was added and cells were incubated at 37° C. for 30 minutes. The fixing/nuclear staining solution was prepared in PBS as a 2× stock containing 4% paraformaldehyde and 2 μM DRAQ5 and 25 μl of this solution was added to the cells and incubated at room temperature in the dark for 30 minutes. The solution was then aspirated and replaced with PBS before confocal microscopy. Confocal microscopy was performed on the IN Cell Analyzer 3000 (GE Healthcare, Piscataway, N.J.).
All experiments with dose-response relationships were analyzed by a nonlinear regression software package from Graphpad (San Diego, Calif.). In the InCell 3000 imager, two excitation lines, 488 nm and 633 nm, were used to simultaneously excite βarrestin-GFP and the DRAQ5 nuclear stain, respectively. Confocal images from the IcCell 3000 were analyzed by the Raven software. Images of 200-300 cells from each well were captured and analyzed with GRN1 (granularity) algorithm using the Raven software of IN Cell Analyzer 3000. Individual cells or nuclei are first identified by thresholding the red channel (DRAQ5). From the nucleus, a rectangular bounding box was dilated out to the edge of the cell with a dilation setting of 15 pixels. […] This granularity algorithm was used to measure the number of fluorescent spots (Ngrains) based on fluorescent intensity and size of the grains and the average value from all the cells in a well were used to obtain the “Ngrain” value for the well. The same GRN1 algorithm was used to measure toxic affects or other false positives. Icyt value was used to measure the average intensity of the green fluorescence inside the bounding box as described above. Low Icyt values may indicate a sign of toxicity (resulting in either cell lyses or cells rounding up) displaying little or no GFP distribution in the cytoplasm and the plasma membrane, while high Icyt values may be due to the presence of fluorescent compound.

[5] = system: U2OS-hMRGX1-βarrGFP cells; assay: Toxicity algorithm (Icyt) on the InCell imaging assay; type: cell-based; details: even at 100 μM
Method: as §1, with “The solution was then aspirated and replaced with PBS before confocal microscopy. Confocal microscopy was performed on the IN Cell Analyzer 3000 (GE Healthcare, Piscataway, N.J.).” left out
All experiments with dose-response relationships were analyzed by a nonlinear regression software package from Graphpad (San Diego, Calif.). […] Confocal images from the IcCell 3000 were analyzed by the Raven software. Images of 200-300 cells from each well were captured and analyzed with GRN1 (granularity) algorithm using the Raven software of IN Cell Analyzer 3000. […] Icyt value was used to measure the average intensity of the green fluorescence inside the bounding box as described above. […]

hMRG-X1 receptor [6] = molecular target: T1, hMRG-X1 receptor; assay: Whole cell receptor binding assay with 3H-BAM in CHO-hMRG-X1-NFAT-BLA cells; details: [3H]-BAM15

T1 sequence (Q96LB2 whole entry): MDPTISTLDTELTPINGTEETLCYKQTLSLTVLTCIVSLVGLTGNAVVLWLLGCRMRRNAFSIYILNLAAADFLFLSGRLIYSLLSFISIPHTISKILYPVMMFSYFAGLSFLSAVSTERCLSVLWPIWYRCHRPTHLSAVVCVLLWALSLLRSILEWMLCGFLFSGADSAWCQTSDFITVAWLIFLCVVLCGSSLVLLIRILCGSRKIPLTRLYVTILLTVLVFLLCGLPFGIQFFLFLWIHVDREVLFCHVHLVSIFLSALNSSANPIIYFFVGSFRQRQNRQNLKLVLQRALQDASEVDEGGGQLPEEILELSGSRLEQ

O=C(OC1C2CCN(CC2)C1C(c1ccccc1)c1ccccc1)c1ccccc1C(F)(F)F (centres unmarked) [Compound 12]
pIC50 (hMRG-X1 receptor [1]; IC50 FLIPR): 5.48
pIC50 (hMRG-X1 receptor [2]; IC50 BLA): 6.60
pIC50 (hMRG-X1 receptor [3]; IC50 Binding): 5.62
pIC50 (hMRG-X1 receptor [4]; IC50 InCell): 5.06

COc1ccccc1C(=O)C=C1C2CCN(CC2)C1C(c1ccccc1)c1ccccc1 (centres unmarked) [Compound 1]
toxicity by toxicity algorithm on the InCell imaging assay [5]: minimal toxicity

C(Cc1ccccc1)=C1C2CCN(CC2)C1C(c1ccccc1)c1ccccc1 (centres unmarked) [Compound 7]
pIC50 (hMRG-X1 receptor [1]; read-out: IC50 FLIPR): 6.66
pIC50 (hMRG-X1 receptor [2]; read-out: IC50 BLA): 6.79
pIC50 (hMRG-X1 receptor [3]; read-out: IC50 Binding): 5.84
pIC50 (hMRG-X1 receptor [4]; read-out: IC50 InCell): 5.66

COc1ccccc1C(O)C=C1C2CCN(CC2)C1C(c1ccccc1)c1ccccc1 (centres unmarked) [Compound 3]
pIC50 (hMRG-X1 receptor [1]; read-out: IC50 FLIPR): 6.73
pIC50 (hMRG-X1 receptor [2]; read-out: IC50 BLA): 7.10
pIC50 (hMRG-X1 receptor [3]; read-out: IC50 Binding): 6.74
pIC50 (hMRG-X1 receptor [4]; read-out: IC50 InCell): 6.26

N#Cc1cccc(COC2C3CCN(CC3)C2C(c2ccccc2)c2ccccc2)c1 (centres unmarked) [Compound 10]
pIC50 (hMRG-X1 receptor [1]; read-out: IC50 FLIPR): 6.31
pIC50 (hMRG-X1 receptor [2]; read-out: IC50 BLA): 6.68
pIC50 (hMRG-X1 receptor [4]; read-out: IC50 InCell): 5.00

OC(C=C1C2CCN(CC2)C1C(c1ccccc1)c1ccccc1)c1ccc(F)cc1 (centres unmarked) [Compound 8]
pIC50 (hMRG-X1 receptor [1]; read-out: IC50 FLIPR): 6.48
pIC50 (hMRG-X1 receptor [2]; read-out: IC50 BLA): 6.78
pIC50 (hMRG-X1 receptor [3]; read-out: IC50 Binding): 6.20
pIC50 (hMRG-X1 receptor [4]; read-out: IC50 InCell): 5.32

O=C(Nc1cccc2ccccc12)OC1C2CCN(CC2)C1C(c1ccccc1)c1ccccc1 (centres unmarked) [Compound 5]
pIC50 (hMRG-X1 receptor [1]; IC50 FLIPR): 6.04
pIC50 (hMRG-X1 receptor [2]; IC50 BLA): 6.91
pIC50 (hMRG-X1 receptor [3]; IC50 Binding): 5.91
pIC50 (hMRG-X1 receptor [4]; IC50 InCell): 5.66

COc1ccccc1NC(=S)NC1C2CCN(CC2)C1C(c1ccccc1)c1ccccc1 (centres unmarked) [Compound 15]
pIC50 (hMRG-X1 receptor [1]; read-out: IC50 FLIPR): 5.01
pIC50 (hMRG-X1 receptor [2]; read-out: IC50 BLA): 6.38
pIC50 (hMRG-X1 receptor [3]; read-out: IC50 Binding): 5.60
pIC50 (hMRG-X1 receptor [4]; read-out: IC50 InCell): 4.87

COc1ccc(C(=O)OC2C3CCN(CC3)C2C(c2ccccc2)c2ccccc2)cc1OC (centres unmarked) [Compound 2]
pIC50 (hMRG-X1 receptor [1]; IC50 FLIPR): 6.80
pIC50 (hMRG-X1 receptor [2]; IC50 BLA): 7.19
pIC50 (hMRG-X1 receptor [4]; IC50 InCell): 5.55

VGRPEWWMDYQKRYG [BAM15, reference compound]
pEC50 (hMRG-X1 receptor [2]; 1.8 μl assay in 3456-well plates, FIG. 3A, read-out: EC50, BLA assay miniaturized): 7.70
pEC50 (hMRG-X1 receptor [2]; 384-well, across 5 clones, FIG. 2B, read-out: EC50s for BAM15, BLA assay): 6.52 to 7.40
pEC50 (hMRG-X1 receptor [4]; BAM15-induced, 30 minutes, FIG. 4, read-out: EC50 of pit phenotype (receptor internalization)): ~4.85
pKd (hMRG-X1 receptor [6]): 7.10

O=C(Nc1ccccc1Cl)OC1C2CCN(CC2)C1C(c1ccccc1)c1ccccc1 (centres unmarked) [Compound 14]
pIC50 (hMRG-X1 receptor [1]; IC50 FLIPR): 5.57
pIC50 (hMRG-X1 receptor [2]; IC50 BLA): 6.43
pIC50 (hMRG-X1 receptor [3]; IC50 Binding): 5.93
pIC50 (hMRG-X1 receptor [4]; IC50 InCell): 4.54

OC(C=C1C2CCN(CC2)C1C(c1ccccc1)c1ccccc1)c1cccc(C(F)(F)F)c1 (centres unmarked) [Compound 4]
pIC50 (hMRG-X1 receptor [1]; read-out: IC50 FLIPR): 6.68
pIC50 (hMRG-X1 receptor [2]; read-out: IC50 BLA): 7.05
pIC50 (hMRG-X1 receptor [4]; read-out: IC50 InCell): 5.17

O=C(Nc1ccccc1Cl)OC1C2CCN(CC2)C1C(c1ccccc1)c1ccccc1 (centres unmarked) [Compound 6]
pIC50 (hMRG-X1 receptor [1]; IC50 FLIPR): 6.12
pIC50 (hMRG-X1 receptor [2]; IC50 BLA): 6.85
pIC50 (hMRG-X1 receptor [3]; IC50 Binding): 6.22
pIC50 (hMRG-X1 receptor [4]; IC50 InCell): 5.44

Cc1cc(C)cc(C(O)C=C2C3CCN(CC3)C2C(c2ccccc2)c2ccccc2)c1 (centres unmarked) [Compound 9]
pIC50 (hMRG-X1 receptor [1]; read-out: IC50 FLIPR): 5.82
pIC50 (hMRG-X1 receptor [2]; read-out: IC50 BLA): 6.70
pIC50 (hMRG-X1 receptor [4]; read-out: IC50 InCell): 5.28

N#Cc1ccc(COC2C3CCN(CC3)C2C(c2ccccc2)c2ccccc2)cc1 (centres unmarked) [Compound 16]
pIC50 (hMRG-X1 receptor [2]; read-out: IC50 BLA): 6.25
pIC50 (hMRG-X1 receptor [3]; read-out: IC50 Binding): 5.73

O=C(Nc1cccc([N+](=O)[O-])c1)OC1C2CCN(CC2)C1C(c1ccccc1)c1ccccc1 (centres unmarked) [Compound 13]
pIC50 (hMRG-X1 receptor [1]; IC50 FLIPR): 5.89
pIC50 (hMRG-X1 receptor [2]; IC50 BLA): 6.54
pIC50 (hMRG-X1 receptor [3]; IC50 Binding): 5.73
pIC50 (hMRG-X1 receptor [4]; IC50 InCell): 5.20

FC(F)(F)c1ccccc1CNC1C2CCN(CC2)C1C(c1ccccc1)c1ccccc1 (centres unmarked) [Compound 11]
pIC50 (hMRG-X1 receptor [1]; read-out: IC50 FLIPR): 6.34
pIC50 (hMRG-X1 receptor [2]; read-out: IC50 BLA): 6.61
pIC50 (hMRG-X1 receptor [3]; read-out: IC50 Binding): 5.89
pIC50 (hMRG-X1 receptor [4]; read-out: IC50 InCell): 5.28
